Patent US20220062166A1, “Self-Gelling Solutions for Administration of Therapeutics to the Inner Ear” (Spiral Therapeutics, Inc., priority 2019, published 2022)
“Also recorded” adds a separate entry of the source.

Columns and labels:
caspase 3 = target: T1, caspase 3 (Homo sapiens, UniProt P42574); test: Caspase 3 activation assay with recombinant proteins; type: biochemical; settings: in %
T1 sequence (P42574 29-277): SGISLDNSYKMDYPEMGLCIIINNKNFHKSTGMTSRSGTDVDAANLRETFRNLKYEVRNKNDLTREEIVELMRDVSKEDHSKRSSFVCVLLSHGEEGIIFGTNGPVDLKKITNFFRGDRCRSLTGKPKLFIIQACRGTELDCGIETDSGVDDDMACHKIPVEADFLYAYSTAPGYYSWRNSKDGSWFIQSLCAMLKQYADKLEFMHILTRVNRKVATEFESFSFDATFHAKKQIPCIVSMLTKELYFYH
Description: The specificity of LPT99 was tested in vitro on Apaf1, caspase 3, and caspase 9 (proteins from the apoptotic cascade), and a broad panel of potential pharmacological targets.
LPT99 inhibited the formation of the apoptosome complex composed by recombinant Apaf1, cyt c, deoxyadenosine triphosphate (dATP), and caspase 9. This activity was measured as inhibition of caspase 3 activation. […] To evaluate the specificity of the inhibition, an assay of caspase 3 and 9 activation was set up with recombinant proteins. The inhibitions of caspase 3 and 9 were 7.6±14.7 and 5.3±3.5, respectively, for LPT99.

A549 cells = test: Proliferation of non-apoptotic A549 cells (flow cytometry, doubling time); type: cell-based; settings: A549 cells cultured up to 6 days; reversible on removal
Description: The effect of LPT99 on proliferation of non-apoptotic cells was studied. A549 cells were cultured in the presence of LPT99 for up to 6 days; the cell number was monitored by flow cytometry, and doubling time was calculated.

[1] = system: panel of receptors (44 GPCR and 4 non-GPCR), 4 ion channels, and 3 transporters; test: Off-target selectivity panel; type: binding; settings: 10 μM
Description: (§1) To identify off-target activities of LPT99, its selectivity against a panel of receptors (44 G-protein-coupled receptors [GPCR] and 4 non-GPCR), 4 ion channels, and 3 transporters were analyzed. The cell line, HEI-OC1 (house ear institute organ of Corti 1), which expresses several characteristic markers of the organ of Corti sensory cells (Kalinec, et al. , Audiol. Neurootol. 2003, 8(4), 177-89), was used to evaluate the efficacy of LPT99 in preventing apoptosis due to […]. Cells were pre-incubated with LPT99, followed by […] for 24 hours.
(§2) For 14 of the tested targets—adenosine receptor 3 (A3); cholecystokinin: cholecystokinin receptor 1 (CCK1); melatonin receptor (MT1); neurokinin (NK2 and NK3); opioid (kOP and mOP); serotonin receptors (5HT-1A, 5HT-2A, 5HT−2B and 5HT−7); and vasopressin (V1A; Na+channel site 2 and Cl-GABA-gated channel)—the LPT99 affinity was >50%. At 1 μM, the inhibition of 13 of these targets was <50%, indicating a very low affinity with LPT99.

opioid kOP = test: Off-target panel: kOP; type: binding
Description: as §1, §2

Cl-GABA-gated channel = test: Off-target panel: Cl- GABA-gated channel; type: binding
Description: as §1, §2

[2] = system: CisPt-induced hearing loss; test: Model of CisPt-induced hearing loss in rats (TT administration); type: in vivo, rat; settings: TT administration of LPT99 in hydrogel, dose dependent
Description: The protective effect of LPT99 was evaluated 3 days […] administration by functional measures, such as auditory brainstem response (ABR) threshold shift, DPOAE, and expression of biomarkers of apoptosis in cochlea and cytocochleograms.

[3] = Plasma concentrations after TT administration of LPT99-CD in female Wistar rats; type: in vivo, rat
[4] = Cochlear and plasma distribution after TT administration in rats (UPLC-ESI/MS/MS); type: in vivo, rat
Description: Cochleae were harvested and rinsed at several timepoints after intratympanic injection of drug product. Drug concentration (y axis) in cochlear homogenates is expressed as nanograms LPT99 per gram of cochlear homogenate.
LPT99 cochlear distribution after TT administration was studied in rats. […] LPT99 concentration was quantified with an ultra-performance liquid chromatography tandem mass spectrometry (UPLC-ESI/MS/MS) system.
Distribution of LPT99 was investigated in cochlea and plasma after a single TT administration in rats. The inhibitor was administered at 50, 100, or 200 μM (dissolved in 5% hydroxypropyl cyclodextrin in physiological serum).

hERG = target: T2, hERG (Homo sapiens, UniProt Q12809); test: hERG automated patch clamp assay in hERG-CHO cells; type: cell-based; settings: detection limit 3.2 nM
T2 construct: expressed in transfected cells; host or cells: CHO
Description: The potential cardiotoxicity of LPT99 was investigated in an assay using the hERG-CHO cells transfected with the automated patch clamp assay.

[5] = system: ion channels, including hERG potassium channels; test: Effects on ion channels including hERG in CHO and HEK 293 cells; type: cell-based
Description: Torsadogenic refers to the development of torsade de Pointes (TdP) arrhythmias

[6] = GLP acute systemic toxicity study, single IP dose, Sprague-Dawley rats; type: in vivo, rat
Description: A GLP acute systemic toxicity study was conducted with LPT99 administered via IP injection in Sprague-Dawley rats. The acute systemic toxicity study was preceded by a non-GLP maximum tolerated dose (MTD) toxicity study, via the same administration and test system, which determined the MTD of LTP99 to be 1000 mg/kg.
LPT99 was suspended in vehicle [0.5% w/v methylcellulose and 0.1% v/v TWEEN® 80 in Milli-Q water] and administered intraperitoneally to Sprague-Dawley rats as a single dose at the doses of 100 (low—G2/G2TK), 300 (mid—G3/G3TK), and 750 (high—G4/G4TK) mg/kg body weight. The rats in vehicle control groups (G1/G1TK) received the vehicle alone. The dose volume administered was at an equivolume of 10 mL/kg body weight for all groups.
The main toxicity groups consist of 15 rats/sex/group in G1 and G4 groups and 10 rats/sex/group in G2 and G3 groups. The toxicokinetic groups consisted of 6 males and 6 female rats each for the prevention groups, whereas the vehicle control group had 3 male and 3 female rats.

[7] = system: BALB/c 3T3 mouse fibroblasts; test: In vitro phototoxicity in BALB/c 3T3 mouse fibroblasts; type: cell-based; settings: ≤100 μM
Description: An in vitro experiment was performed in BALB/c 3T3 mouse fibroblasts to determine the phototoxic potential of LPT99 at concentrations of ≤100 μM in 3T3L1 cells.

T2 sequence (Q12809 whole entry): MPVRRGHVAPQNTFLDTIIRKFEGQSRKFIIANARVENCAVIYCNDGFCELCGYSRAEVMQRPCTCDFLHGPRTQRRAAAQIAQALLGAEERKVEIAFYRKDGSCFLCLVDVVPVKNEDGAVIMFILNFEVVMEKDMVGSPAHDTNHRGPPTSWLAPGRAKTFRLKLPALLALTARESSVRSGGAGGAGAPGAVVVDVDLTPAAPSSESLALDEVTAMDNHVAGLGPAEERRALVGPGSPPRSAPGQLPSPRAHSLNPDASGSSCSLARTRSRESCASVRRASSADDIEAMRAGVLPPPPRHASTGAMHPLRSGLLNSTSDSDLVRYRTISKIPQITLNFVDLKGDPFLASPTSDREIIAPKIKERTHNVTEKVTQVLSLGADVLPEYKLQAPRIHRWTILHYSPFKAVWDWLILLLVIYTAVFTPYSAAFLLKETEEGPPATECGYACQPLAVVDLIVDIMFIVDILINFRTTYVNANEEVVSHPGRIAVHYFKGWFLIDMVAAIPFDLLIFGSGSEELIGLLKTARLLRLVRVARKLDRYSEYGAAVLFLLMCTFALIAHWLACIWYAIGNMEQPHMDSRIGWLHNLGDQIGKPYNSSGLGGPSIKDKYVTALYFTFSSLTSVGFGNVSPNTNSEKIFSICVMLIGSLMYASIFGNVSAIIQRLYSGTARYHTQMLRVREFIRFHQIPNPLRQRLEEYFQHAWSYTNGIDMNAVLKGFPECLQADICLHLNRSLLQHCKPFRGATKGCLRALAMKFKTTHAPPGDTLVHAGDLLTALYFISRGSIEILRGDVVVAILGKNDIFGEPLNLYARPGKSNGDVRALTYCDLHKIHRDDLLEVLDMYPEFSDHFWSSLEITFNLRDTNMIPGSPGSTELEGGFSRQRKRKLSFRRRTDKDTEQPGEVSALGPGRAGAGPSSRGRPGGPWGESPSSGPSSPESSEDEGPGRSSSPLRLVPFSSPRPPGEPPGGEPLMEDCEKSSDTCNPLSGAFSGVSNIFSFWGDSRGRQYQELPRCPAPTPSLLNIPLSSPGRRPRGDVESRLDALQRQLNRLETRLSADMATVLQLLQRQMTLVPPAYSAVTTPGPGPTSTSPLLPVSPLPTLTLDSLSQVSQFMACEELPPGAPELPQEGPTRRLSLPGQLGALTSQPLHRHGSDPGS

Which “inhibition of caspase 3” value (caspase 3) does the source give for `COc1ccc2[nH]cc(CCNC(=O)CC3C(=O)N(CCc4ccc(Cl)cc4Cl)CC(=O)N3CCc3cccs3)c2c1` (stereo not shown) [LPT99, 2-(4-(2,4-dichlorophenethyl)-3,6-dioxo-1-(2-(thiophen-2-yl)ethyl)piperazin-2-yl)-N-(2-(5-methoxy-1H-indol-3-yl)ethyl)acetamide] here?
Its value is 7.6±14.7.

And the “effect on proliferation of non-apoptotic cells” value (A549 cells)?
Its value is “delayed cellular proliferation by accumulation of cells at the G1 phase of the cell cycle”.

What about the “in vitro inhibition for 41 of the tested targets” value [1] of the same compound?
Its value is < 50%.

What about the “inhibition kOP” value (opioid kOP; 1 μM) of the same compound?
Its value is < 50%.

What about the “affinity (inhibition) kOP” value (opioid kOP; 10 μM) of the same compound?
The value was > 50%.

And the “inhibition Cl-GABA-gated channel” value (Cl-GABA-gated channel; 1 μM)?
Its value is < 50%.

And the “affinity (inhibition) Cl-GABA-gated channel” value (Cl-GABA-gated channel; 10 μM)?
Its value is > 50%.

And the “protection against CisPt-induced hearing loss vs vehicle control” value [2]?
Its value is “protected against CisPt-induced hearing loss”.

And the “plasma concentration of 3.2 nM as fraction of administered dose” value ([3]; 50 μM dose)?
Its value is 0.006%.

And the “plasma concentration of 3.2 nM as fraction of administered dose” value ([3]; 100 μM dose)?
The value was 0.003%.

And the “plasma concentration of 3.2 nM as fraction of administered dose” value ([3]; 200 μM dose)?
The value was 0.0016%.

What about the “plasma level after TT administration (not detectable; detection limit)” value ([3]; TT administration) of the same compound?
Its value is < 3.2 nM.

And the “Plasma LPT99 concentrations (BLLQ)” value ([3]; female Wistar rats, 1 hour and 2, 4, 7, 15 days after single 50 μL TT dose of 50, 100, or 200 μM LPT99-CD)?
The value was < 2 ng/mL.

And the “detection in administered cochleae” value ([4]; 0.5 and 1 hour, 50, 100, or 200 μM in 5% hydroxypropyl cyclodextrin)?
The value was “detected in all administered cochleae”.

What about the “LPT99 in plasma (not found; detection limit)” value ([4]; after TT administration of the LPT99 formulation in a hydrogel) of the same compound?
Its value is < 2 ng/mL.

What about the “concentrations in contralateral cochleae and plasma” value ([4]; all time points, 50, 100, or 200 μM in 5% hydroxypropyl cyclodextrin) of the same compound?
The value was “BLLQ”.

And the “LPT99 concentrations in plasma (BLLQ)” value ([4]; all time-points and doses)?
Its value is < 2 ng/mL.

What about the “LPT99 concentrations in the contralateral cochleae (BLLQ)” value ([4]; all time-points and doses) of the same compound?
Its value is < 3 ng/g.

And the “distribution to cochlea after TT administration” value ([4]; rats, FIG. 4)?
The value was “distributed locally to the cochlea; also recorded: distributed to cochlea in a dose-dependent manner”.

And the “distribution to contralateral cochleae or plasma” value ([4]; rats, TT)?
Its value is “No distribution to the contralateral cochleae or plasma was observed”.

What about the “safety margin (hERG IC50 vs plasma detection limit)” value (hERG) of the same compound?
Its value is > 1063.

And the torsadogenic risk [5]?
The torsadogenic risk was “low torsadogenic risk”.

What about the food consumption ([6]; 750 mg/kg, males days 1-7, females days 1-4, vs control) of the same compound?
The food consumption was “statistically significant reduction in the food consumption”.

And the tolerability ([6]; single IP 100, 300, 750 mg/kg)?
The tolerability was “generally safe and well tolerated”.

What about the “cytotoxicity in presence or absence of ultraviolet-visible irradiation” value [7] of the same compound?
The value was “not cytotoxic”.
